# Reference: US6753345B2, “7-hexanolytaxol and methods for preparing the same” (Hauser, Inc., priority 1998, dated 2004)
# How the values were obtained:
# [1] = system: RXF-393; assay: SRB cytotoxicity screening assay (Renal Cancer); details: for GI50 / CC50: Homo sapiens, RXF 393, 48 h; for GI50: read-out: Log10 GI50 (converted); for CC50: read-out: Log10 LC50 (converted)
# [2] = system: A498; assay: SRB cytotoxicity screening assay (Renal Cancer); details: for GI50 / CC50: Homo sapiens, A498, 48 h; for GI50: read-out: Log10 GI50 (converted); for CC50: read-out: Log10 LC50 (converted)
# [3] = system: DU-145; assay: SRB cytotoxicity screening assay (Prostate Cancer); details: for Log10 TGI: DU-145 (Prostate Cancer), PG=0, 48 hour incubation; for GI50 / CC50: Homo sapiens, DU-145, 48 h; for GI50: read-out: Log10 GI50 (converted); for CC50: read-out: Log10 LC50 (converted)
# [4] = system: TK-10; assay: SRB cytotoxicity screening assay (Renal Cancer); details: for GI50 / CC50: Homo sapiens, TK-10, 48 h; for GI50: read-out: Log10 GI50 (converted); for CC50: read-out: Log10 LC50 (converted); for Log10 TGI: TK-10 (Renal Cancer), PG=0, 48 hour incubation
# [5] = system: IGR-OV1; assay: SRB cytotoxicity screening assay (Ovarian); details: for GI50: read-out: Log10 GI50 (converted); for Log10 TGI: IGR-OV1 (Ovarian), PG=0, 48 hour incubation
# [6] = system: NCI-H322M; details: NCI-H322M (Non-Small Cell Lung Cancer); PG=0; 48 hour incubation
# [7] = system: SF-539; assay: SRB cytotoxicity screening assay (CNS Cancer); details: for GI50: read-out: Log10 GI50 (converted)
# [8] = system: SK-MEL-2; assay: SRB cytotoxicity screening assay (Melanoma); details: for GI50: read-out: Log10 GI50 (converted)
# [9] = system: NCI-H522; assay: SRB cytotoxicity screening assay (Non-Small Cell Lung Cancer); details: for Log10 TGI: NCI-H522 (Non-Small Cell Lung Cancer), PG=0, 48 hour incubation
# [10] = system: MCF7/ADR-RES; assay: SRB cytotoxicity screening assay (Breast Cancer); details: for GI50 / CC50: Homo sapiens, MCF7, 48 h; for GI50: read-out: Log10 GI50 (converted); for CC50: read-out: Log10 LC50 (converted); for Log10 TGI: MCF7/ADR-RES (Breast Cancer), PG=0, 48 hour incubation
# [11] = system: UACC-257; assay: SRB cytotoxicity screening assay (Melanoma); details: for CC50: read-out: Log10 LC50 (converted); for Log10 TGI: UACC-257 (Melanoma), PG=0, 48 hour incubation
# [12] = system: HCC-2998; assay: SRB cytotoxicity screening assay (Colon Cancer); details: for Log10 TGI: HCC-2998 (Colon Cancer), PG=0, 48 hour incubation
# [13] = system: OVCAR-5; assay: SRB cytotoxicity screening assay (Ovarian); details: for GI50 / CC50: Homo sapiens, OVCAR-5, 48 h; for GI50: read-out: Log10 GI50 (converted); for CC50: read-out: Log10 LC50 (converted); for Log10 TGI: OVCAR-5 (Ovarian), PG=0, 48 hour incubation
# [14] = system: COLO 205; assay: SRB cytotoxicity screening assay (Colon Cancer); details: for GI50: read-out: Log10 GI50 (converted)
# [15] = system: KM12; assay: SRB cytotoxicity screening assay (Colon Cancer); details: for GI50: read-out: Log10 GI50 (converted); for Log10 TGI: KM12 (Colon Cancer), PG=0, 48 hour incubation
# [16] = system: HL-60(TB); details: HL-60(TB) (Leukemia); PG=0; 48 hour incubation
# [17] = system: HCT-116; assay: SRB cytotoxicity screening assay (Colon Cancer); details: for Log10 TGI: HCT-116 (Colon Cancer), PG=0, 48 hour incubation
# [18] = system: PC-3; assay: SRB cytotoxicity screening assay (Prostate Cancer); details: for GI50 / CC50: Homo sapiens, PC-3, 48 h; for GI50: read-out: Log10 GI50 (converted); for CC50: read-out: Log10 LC50 (converted); for Log10 TGI: PC-3 (Prostate Cancer), PG=0, 48 hour incubation
# [19] = system: OVCAR-6; assay: SRB cytotoxicity screening assay (Ovarian); details: for GI50 / CC50: 48 h; for GI50: read-out: Log10 GI50 (converted); for CC50: read-out: Log10 LC50 (converted)
# [20] = system: OVCAR-4; assay: SRB cytotoxicity screening assay (Ovarian); details: for GI50: read-out: Log10 GI50 (converted); for Log10 TGI: OVCAR-4 (Ovarian), PG=0, 48 hour incubation
# [21] = system: UACC-62; assay: SRB cytotoxicity screening assay (Melanoma); details: for GI50: read-out: Log10 GI50 (converted); for Log10 TGI: UACC-62 (Melanoma), PG=0, 48 hour incubation
# [22] = system: CCRF-CEM cells; assay: G2/M arrest; type: cell-based; details: minimum concentration that results in 60% of CCRF-CEM cells to arrest in G2-M
# [23] = system: cell line panel (60 lines, nine disease-related subpanels); assay: SRB cytotoxicity screening assay, whole cell line panel (mean values)
# [24] = system: NCI-H460; assay: SRB cytotoxicity screening assay (Non-Small Cell Lung Cancer); details: for Log10 TGI: NCI-H460 (Non-Small Cell Lung Cancer), PG=0, 48 hour incubation
# [25] = system: HL-60(TB); assay: cells; details: Homo sapiens, HL-60, 48 h; for GI50: read-out: Log10 GI50 (converted)
# [26] = mean value over the cell line panel
structure (smiles),measurement,setting,value
CCCCCC(=O)O[C@H]1C[C@H]2OC[C@@]2(OC(C)=O)[C@H]2[C@H](OC(=O)c3ccccc3)[C@]3(O)C[C@H](OC(=O)[C@H](O)[C@@H](NC(=O)c4ccccc4)c4ccccc4)C(C)=C([C@@H](OC(C)=O)C(=O)[C@]12C)C3(C)C [7-hexanoyltaxol],GI50,[1],< 10 nM
same,CC50,[1],91200 nM
same,Log10 TGI,"[2]; A498 (Renal Cancer), PG=0, 48 hour incubation",−7.29 molar
same,GI50,[2],< 10 nM
same,CC50,[2],> 100000 nM
same,Log10 TGI,[3],−7.00 molar
same,GI50,[3],< 10 nM
same,CC50,[3],37200 nM
same,GI50,[4],32.4 nM
same,CC50,[4],> 100000 nM
same,Log10 TGI,[4],−4.45 molar
same,GI50,"[5]; Homo sapiens, IGROV-1, 48 h",< 10 nM
same,CC50,"[5]; Homo sapiens, IGROV-1, 48 h, read-out: Log10 LC50 (converted)",> 100000 nM
same,Log10 TGI,[5],−4.52 molar
same,Log10 TGI,[6],−4.51 molar
same,GI50,"[7]; Homo sapiens, SF-539, 48 h",< 10 nM
same,CC50,"[7]; Homo sapiens, SF-539, 48 h, read-out: Log10 LC50 (converted)",1510 nM
same,Log10 TGI,"[7]; SF-539 (CNS Cancer), PG=0, 48 hour incubation",−7.32 molar
same,GI50,"[8]; Homo sapiens, SK-MEL-2, 48 h",93.3 nM
same,CC50,"[8]; Homo sapiens, SK-MEL-2, 48 h, read-out: Log10 LC50 (converted)",> 100000 nM
same,Log10 TGI,"[8]; SK-MEL-2 (Melanoma), PG=0, 48 hour incubation",−4.56 molar
same,GI50,"[9]; Homo sapiens, NCI-H522, 48 h, read-out: Log10 GI50 (converted)",< 10 nM
same,CC50,"[9]; Homo sapiens, NCI-H522, 48 h, read-out: Log10 LC50 (converted)",> 100000 nM
same,Log10 TGI,[9],−5.91 molar
same,GI50,[10],1120 nM
same,CC50,[10],> 100000 nM
same,Log10 TGI,[10],−4.80 molar
same,CC50,"[11]; Homo sapiens, UACC-257, 48 h",> 100000 nM
same,Log10 TGI,[11],−4.00 molar
same,Log10 TGI,[12],−7.35 molar
same,GI50,"[12]; Homo sapiens, HCC 2998, 48 h, read-out: Log10 GI50 (converted)",< 10 nM
same,CC50,"[12]; Homo sapiens, HCC 2998, 48 h, read-out: Log10 LC50 (converted)",8320 nM
same,GI50,[13],< 10 nM
same,CC50,[13],33900 nM
same,Log10 TGI,[13],−5.47 molar
same,Log10 TGI,"[14]; COLO 205 (Colon Cancer), PG=0, 48 hour incubation",−7.38 molar
same,GI50,"[14]; Homo sapiens, COLO 205, 48 h",< 10 nM
same,CC50,"[14]; Homo sapiens, COLO 205, 48 h, read-out: Log10 LC50 (converted)",26300 nM
same,GI50,"[15]; Homo sapiens, KM12, 48 h",< 10 nM
same,CC50,"[15]; Homo sapiens, KM12, 48 h, read-out: Log10 LC50 (converted)",> 100000 nM
same,Log10 TGI,[15],−4.90 molar
same,Log10 TGI,[16],<−8.00 molar
same,Log10 TGI,[17],−4.94 molar
same,GI50,"[17]; Homo sapiens, HCT-116, 48 h, read-out: Log10 GI50 (converted)",< 10 nM
same,CC50,"[17]; Homo sapiens, HCT-116, 48 h, read-out: Log10 LC50 (converted)",> 100000 nM
same,GI50,[18],< 10 nM
same,CC50,[18],> 100000 nM
same,Log10 TGI,[18],−5.48 molar
same,GI50,[19],< 10 nM
same,CC50,[19],85100 nM
same,Log10 TGI,"[19]; OVCAR-6 (Ovarian), PG=0, 48 hour incubation",−4.88 molar
same,GI50,"[20]; Homo sapiens, OVCAR-4, 48 h",1580 nM
same,CC50,"[20]; Homo sapiens, OVCAR-4, 48 h, read-out: Log10 LC50 (converted)",> 100000 nM
same,Log10 TGI,[20],−4.21 molar
same,GI50,"[21]; Homo sapiens, UACC-62, 48 h",< 10 nM
same,CC50,"[21]; Homo sapiens, UACC-62, 48 h, read-out: Log10 LC50 (converted)",> 100000 nM
same,Log10 TGI,[21],−4.78 molar
same,G2/M arrest MED,[22],0.10 µg/mL
same,potency compared with paclitaxel,"[23]; cancer cell line panel, Table I",in most instances is as potent and in some instances more potent than paclitaxel
same,"Log10 GI50, MG_MID",[23]; [26],−7.79 molar
same,"Log10 LC50, MG_MID",[23]; [26],−4.32 molar
same,"Log10 TGI, MG_MID",[23]; [26],−5.59 molar
same,GI50,"[24]; Homo sapiens, NCI-H460, 48 h, read-out: Log10 GI50 (converted)",< 10 nM
same,CC50,"[24]; Homo sapiens, NCI-H460, 48 h, read-out: Log10 LC50 (converted)",> 100000 nM
same,Log10 TGI,[24],−4.75 molar
same,GI50,[25],< 10 nM
same,CC50,[25]; read-out: Log10 LC50 (converted),> 100000 nM
"CC(=O)O[C@H]1C(=O)[C@@]2(C)[C@H]([C@H](OC(=O)c3ccccc3)[C@]3(O)C[C@H](OC(=O)[C@H](O)[C@@H](NC(=O)c4ccccc4)c4ccccc4)C(C)=C1C3(C)C)[C@]1(OC(C)=O)CO[C@@H]1C[C@@H]2O [Paclitaxel, paclitaxel, reference compound]",GI50,[1],4.79 nM
same,CC50,[1],35500 nM
same,Log10 TGI,"[1]; RXF-393 (Renal Cancer), PG=0, 48 hour incubation",−4.90 molar
same,GI50,[2],72.4 nM
same,CC50,[2],74100 nM
same,Log10 TGI,[3],>−4.00 molar
same,GI50,[3],0.417 nM
same,CC50,[3],> 100000 nM
same,GI50,[4],12.9 nM
same,CC50,[4],> 100000 nM
same,Log10 TGI,[4],>−4.00 molar
same,GI50,"[5]; Homo sapiens, IGROV-1, 48 h",2.45 nM
same,Log10 TGI,[5],−4.19 molar
same,Log10 TGI,[6],−4.46 molar
same,GI50,"[7]; Homo sapiens, SF-539, 48 h",0.00813 nM
same,GI50,"[8]; Homo sapiens, SK-MEL-2, 48 h",0.295 nM
same,Log10 TGI,[9],−11.20 molar
same,GI50,[10],3.31 nM
same,CC50,[10],> 100000 nM
same,Log10 TGI,[10],>−4.00 molar
same,GI50,"[11]; Homo sapiens, UACC-257, 48 h, read-out: Log10 GI50 (converted)",0.0501 nM
same,CC50,"[11]; Homo sapiens, UACC-257, 48 h",93300 nM
same,Log10 TGI,[11],−4.52 molar
same,Log10 TGI,[12],−4.77 molar
same,GI50,[13],0.417 nM
same,CC50,[13],> 100000 nM
same,Log10 TGI,[13],−4.92 molar
same,GI50,"[14]; Homo sapiens, COLO 205, 48 h",0.00851 nM
same,GI50,"[15]; Homo sapiens, KM12, 48 h",0.00372 nM
same,Log10 TGI,[15],−4.36 molar
same,Log10 TGI,[16],>−4.53 molar
same,Log10 TGI,[17],−4.82 molar
same,GI50,[18],0.0141 nM
same,CC50,[18],> 100000 nM
same,Log10 TGI,[18],>−4.00 molar
same,GI50,[19],0.0178 nM
same,CC50,[19],> 100000 nM
same,GI50,"[20]; Homo sapiens, OVCAR-4, 48 h",1580 nM
same,Log10 TGI,[20],−4.19 molar
same,GI50,"[21]; Homo sapiens, UACC-62, 48 h",0.0347 nM
same,Log10 TGI,[21],−4.71 molar
same,G2/M arrest MED,[22],0.025 µg/mL
same,"Log10 TGI, MG_MID",[23]; [26],−4.54 molar
same,GI50,"[23]; read-out: Log10 GI50, MG_MID (converted)",0.0708 nM
same,CC50,"[23]; read-out: Log10 LC50, MG_MID (converted)",87100 nM
same,Log10 TGI,[24],−4.92 molar
same,GI50,[25],0.00269 nM
